In data set [1] the target is T1, ATP-dependent translocase ABCB1 (Homo sapiens, UniProt P08183). Description: Reversal of P-gp mediated multidrug resistance in human HepG2/Dox cells assessed as potentiation of doxorubicin-induced cell growth inhibition at 10 uM measured after 48 hrs by MTT assay (reference value: 24%). Type of data set: cell-based. (Tetrazolium dyes change colour on reduction, which living cells bring about.)

Data set [2] can be described thus: Cytotoxicity against human MCF7/ADM cells assessed as reduction in cell viability at 10 uM measured after 48 hrs by MTT assay. Type of data set: cell-based.
Data set [3] can be described thus: Cytotoxicity against human HepG2/DOX cells assessed as reduction in cell viability at 10 uM measured after 48 hrs by MTT assay. Type of data set: cell-based.
For data set [4], the target named is T1, ATP-dependent translocase ABCB1. The data set can be described thus: Reversal of P-gp mediated multidrug resistance in human MCF7/ADM cells assessed as potentiation of doxorubicin-induced cell growth inhibition at 10 uM measured after 48 hrs by MTT assay (reference value: 5%). Type of data set: cell-based.
Data set [5] shares this target. Description: Reversal of P-gp mediated multidrug resistance in human HepG2/DOX cells assessed as potentiation of taxol-induced cytotoxicity at 5 to 10 uM by MTT assay. Type of data set: cell-based. To be noted: TDE = time-dependent effect.
Data set [6] has the same target. Description: Reversal of P-gp mediated multidrug resistance in human HepG2/DOX cells assessed as potentiation of doxorubicin-induced cytotoxicity at 5 to 10 uM by MTT assay. Type of data set: cell-based. To be noted: TDE = time-dependent effect.
Data set [7] has the same target. The data set can be described thus: Reversal of P-gp mediated multidrug resistance in human MCF7/ADM cells assessed as potentiation of doxorubicin-induced cytotoxicity at 5 to 10 uM by MTT assay. Type of data set: cell-based. The note with it: TDE = time-dependent effect.
The target is the same in data set [8]. The data set can be described thus: Reversal of P-gp mediated multidrug resistance in human MCF7/ADM cells assessed as fold reduction in doxorubicin IC50 at 10 uM measured within 48 hrs by MTT assay relative to control. Type of data set: cell-based.
The target is the same in data set [9]. The data set can be described thus: Reversal of P-gp mediated multidrug resistance in human MCF7/ADM cells assessed as fold reduction in doxorubicin IC50 at 5 uM measured within 48 hrs by MTT assay relative to control. Type of data set: cell-based.
Data set [10] has the same target. The data set can be described thus: Reversal of P-gp mediated multidrug resistance in human HepG2/DOX cells assessed as fold reduction in doxorubicin IC50 at 10 uM measured within 48 hrs by MTT assay relative to control. Type of data set: cell-based.
Data set [11] can be described thus: Cytotoxicity against human MCF7/ADM cells assessed as cell viability at 10 uM measured after 48 hrs by MTT assay relative to control. Type of data set: cell-based. To be noted: read-out: Activity.
Data set [12] is described as follows: Cytotoxicity against human HepG2/DOX cells assessed as cell viability at 10 uM measured after 48 hrs by MTT assay relative to control. The note with it: read-out: Activity. Type of data set: cell-based.
The next data set relates to MCF7. Description: Cytotoxicity against human MCF7 cells assessed as cell viability at 5 to 50 uM measured after 48 hrs by MTT assay. Type of data set: cell-based. To be noted: mcf7, 48 h.
The subject of another data set is HepG2. Description: Cytotoxicity against human HepG2 cells assessed as cell viability at 5 to 50 uM measured after 48 hrs by MTT assay. Type of data set: cell-based. The note with it: hepg2, 48 h.
Data set [13] has as its target T1, ATP-dependent translocase ABCB1. Description: Reversal of P-gp mediated drug efflux in human HepG2/Dox cells assessed as increase in intracellular doxorubicin accumulation at 10 uM preincubated for 4 hrs followed by doxorubicin addition measured after 1 hr incubation by fluorescence microscopic analysis. Type of data set: cell-based.
Data set [14] has the same target. Description: Reversal of P-gp mediated drug efflux in human HepG2/Dox cells assessed as increase in intracellular Rhodamine123 accumulation at 10 uM preincubated for 4 hrs followed by Rh123 addition measured after 1 hr incubation by fluorescence microscopic analysis. Type of data set: cell-based.
Data set [15] has the same target. The data set can be described thus: Reversal of P-gp mediated drug efflux in human HepG2/Dox cells assessed as increase in intracellular doxorubicin accumulation at 5 to 10 uM preincubated for 4 hrs followed by doxorubicin addition measured after 1 hr incubation by flow cytometry analysis. Type of data set: cell-based.
The target is the same in data set [16]. Description: Reversal of P-gp mediated drug efflux in human HepG2/Dox cells assessed as increase in intracellular Rhodamine123 accumulation at 5 to 10 uM preincubated for 4 hrs followed by Rh123 addition measured after 1 hr incubation by flow cytometry analysis. Type of data set: cell-based. In general terms: Flow cytometry measures light scatter and fluorescence of single cells or particles in a stream.

The target is the same in data set [17]. The data set can be described thus: Reversal of P-gp mediated drug efflux in human MCF7/ADM cells assessed as increase in intracellular doxorubicin accumulation at 10 uM preincubated for 4 hrs followed by doxorubicin addition measured after 1 hr incubation by fluorescence microscopic analysis. Type of data set: cell-based.
Data set [18] shares this target. Description: Reversal of P-gp mediated drug efflux in human MCF7/ADM cells assessed as increase in intracellular Rhodamine123 accumulation at 10 uM preincubated for 4 hrs followed by Rh123 addition measured after 1 hr incubation by fluorescence microscopic analysis. Type of data set: cell-based.
The target is the same in data set [19]. The data set can be described thus: Inhibition of P-gp mediated doxorubicin efflux in human HepG2/Dox cells at 5 to 10 uM preincubated for 4 hrs followed by co-incubation with doxorubicin for 2 hrs followed by doxorubicin wash-out and measured after 120 mins incubation with drug containing culture medium by fluorescence based analysis. Type of data set: cell-based.

Data set [20] shares this target. The data set can be described thus: Inhibition of P-gp mediated doxorubicin efflux in human MCF7/ADM cells at 5 to 10 uM preincubated for 4 hrs followed by co-incubation with doxorubicin for 2 hrs followed by doxorubicin wash-out and measured after 120 mins incubation with drug containing culture medium by fluorescence based analysis. Type of data set: cell-based.

The species entered for data set [21] is Homo sapiens. The data set can be described thus: Effect on P-gp expression in human MCF7/ADM cells at 5 to 10 uM measured after 48 hrs by Western blot analysis. Type of data set: functional, cell-based. A general note: A western blot detects proteins with antibodies after separation by electrophoresis.
For data set [22], the species on record is Homo sapiens. Description: Effect on P-gp expression in human HepG2/Dox cells at 5 to 10 uM measured after 48 hrs by Western blot analysis. Type of data set: functional, cell-based.
For data set [23], the target named is T1, ATP-dependent translocase ABCB1. The data set can be described thus: Stimulation of P-gp ATPase activity (unknown origin) at 5 to 10 uM incubated for 40 mins by P-gp-Glo luminescence assay.
Data set [24] is described as follows: Cytotoxicity against human AC16 cells assessed as cell survival at 50 uM measured after 72 hrs by MTT assay relative to control. Type of data set: cell-based. To be noted: read-out: Activity.
The test system of data set [25] is Homo sapiens. The data set can be described thus: In vivo reversal of P-gp mediated drug resistance in human HepG2/Dox cells xenografted in BALB/c nude mouse assessed as reduction in tumour growth at 25 mg/kg, iv co-administered with doxorubicin every 3rd day for 12 days. Type of data set: functional, organism-based.
In data set [26] the test system is Homo sapiens. Description: In vivo reversal of P-gp mediated drug resistance in human HepG2/Dox cells xenografted in BALB/c nude mouse assessed as tumour growth at 25 mg/kg, ip administered daily. Type of data set: functional, organism-based.
Data set [27] is described as follows: Toxicity in BALB/c nude mouse xenografted with human HepG2/Dox cells assessed as effect on body weight at 25 mg/kg, ip administered daily. Type of data set: organism-based. To be noted: in vivo.
A short description of data set [28]: Toxicity in BALB/c nude mouse xenografted with human HepG2/Dox cells assessed as effect on doxorubicin-induced body weight decline at 25 mg/kg, iv coadministered with doxorubicin every 3rd day for 12 days. The note with it: in vivo, 288 h. Type of data set: organism-based.
Data set [29] is described as follows: Cardiotoxicity in BALB/c nude mouse xenografted with human HepG2/Dox cells assessed as effect on doxorubicin-induced myocardial cell enlargement at 25 mg/kg, iv cotreated with doxorubicin every 3rd day for 12 days by hematoxylin and eosin staining based assay. Type of data set: toxicity, organism-based. To be noted: in vivo, 288 h.
Data set [30] is described as follows: Cardiotoxicity in BALB/c nude mouse xenografted with human HepG2/Dox cells assessed as effect on myocardial cells at 25 mg/kg, ip administered daily by hematoxylin and eosin staining based assay. Type of data set: toxicity, organism-based. To be noted: in vivo.
Data set [31] in a line: Toxicity in spleen of BALB/c nude mouse xenografted with human HepG2/Dox cells assessed as blood extravasation at 25 mg/kg, iv cotreated with doxorubicin every 3rd day for 12 days by hematoxylin and eosin staining based assay. Type of data set: organism-based. To be noted: in vivo, 288 h.
Data set [32] is described as follows: Toxicity in spleen of BALB/c nude mouse xenografted with human HepG2/Dox cells assessed as inflammation at 25 mg/kg, iv cotreated with doxorubicin every 3rd day for 12 days by hematoxylin and eosin staining based assay. Type of data set: organism-based. The note with it: in vivo, 288 h.
Data set [33] is described as follows: Toxicity in liver of BALB/c nude mouse xenografted with human HepG2/Dox cells at 25 mg/kg, iv cotreated with doxorubicin every 3rd day for 12 days by hematoxylin and eosin staining based assay. Type of data set: organism-based. To be noted: in vivo, 288 h.
Data set [34] can be described thus: Toxicity in liver of BALB/c nude mouse xenografted with human HepG2/Dox cells at 25 mg/kg, ip administered daily by hematoxylin and eosin staining based assay. Type of data set: organism-based. To be noted: in vivo.
Data set [35] can be described thus: Toxicity in lung of BALB/c nude mouse xenografted with human HepG2/Dox cells at 25 mg/kg, iv cotreated with doxorubicin every 3rd day for 12 days by hematoxylin and eosin staining based assay. Type of data set: organism-based. To be noted: in vivo, 288 h.
Data set [36] in a line: Toxicity in lung of BALB/c nude mouse xenografted with human HepG2/Dox cells at 25 mg/kg, ip administered daily by hematoxylin and eosin staining based assay. Type of data set: organism-based. The note with it: in vivo.
A short description of data set [37]: Toxicity in kidney of BALB/c nude mouse xenografted with human HepG2/Dox cells at 25 mg/kg, iv cotreated with doxorubicin every 3rd for 12 days by hematoxylin and eosin staining based assay. Type of data set: organism-based. To be noted: in vivo, 288 h.
The nature of data set [38]: Toxicity in kidney of BALB/c nude mouse xenografted with human HepG2/Dox cells at 25 mg/kg, ip administered daily by hematoxylin and eosin staining based assay. Type of data set: organism-based. To be noted: in vivo.
Data set [39] deals with T1, ATP-dependent translocase ABCB1. Description: Reversal of P-gp mediated multidrug resistance in human MCF7/ADM cells assessed as potentiation of doxorubicin-induced cell growth inhibition at 10 uM measured after 48 hrs by MTT assay. Type of data set: cell-based.

The source made the active and inactive calls. No cut-off for these calls is given here.

T1 sequence (P08183 whole entry): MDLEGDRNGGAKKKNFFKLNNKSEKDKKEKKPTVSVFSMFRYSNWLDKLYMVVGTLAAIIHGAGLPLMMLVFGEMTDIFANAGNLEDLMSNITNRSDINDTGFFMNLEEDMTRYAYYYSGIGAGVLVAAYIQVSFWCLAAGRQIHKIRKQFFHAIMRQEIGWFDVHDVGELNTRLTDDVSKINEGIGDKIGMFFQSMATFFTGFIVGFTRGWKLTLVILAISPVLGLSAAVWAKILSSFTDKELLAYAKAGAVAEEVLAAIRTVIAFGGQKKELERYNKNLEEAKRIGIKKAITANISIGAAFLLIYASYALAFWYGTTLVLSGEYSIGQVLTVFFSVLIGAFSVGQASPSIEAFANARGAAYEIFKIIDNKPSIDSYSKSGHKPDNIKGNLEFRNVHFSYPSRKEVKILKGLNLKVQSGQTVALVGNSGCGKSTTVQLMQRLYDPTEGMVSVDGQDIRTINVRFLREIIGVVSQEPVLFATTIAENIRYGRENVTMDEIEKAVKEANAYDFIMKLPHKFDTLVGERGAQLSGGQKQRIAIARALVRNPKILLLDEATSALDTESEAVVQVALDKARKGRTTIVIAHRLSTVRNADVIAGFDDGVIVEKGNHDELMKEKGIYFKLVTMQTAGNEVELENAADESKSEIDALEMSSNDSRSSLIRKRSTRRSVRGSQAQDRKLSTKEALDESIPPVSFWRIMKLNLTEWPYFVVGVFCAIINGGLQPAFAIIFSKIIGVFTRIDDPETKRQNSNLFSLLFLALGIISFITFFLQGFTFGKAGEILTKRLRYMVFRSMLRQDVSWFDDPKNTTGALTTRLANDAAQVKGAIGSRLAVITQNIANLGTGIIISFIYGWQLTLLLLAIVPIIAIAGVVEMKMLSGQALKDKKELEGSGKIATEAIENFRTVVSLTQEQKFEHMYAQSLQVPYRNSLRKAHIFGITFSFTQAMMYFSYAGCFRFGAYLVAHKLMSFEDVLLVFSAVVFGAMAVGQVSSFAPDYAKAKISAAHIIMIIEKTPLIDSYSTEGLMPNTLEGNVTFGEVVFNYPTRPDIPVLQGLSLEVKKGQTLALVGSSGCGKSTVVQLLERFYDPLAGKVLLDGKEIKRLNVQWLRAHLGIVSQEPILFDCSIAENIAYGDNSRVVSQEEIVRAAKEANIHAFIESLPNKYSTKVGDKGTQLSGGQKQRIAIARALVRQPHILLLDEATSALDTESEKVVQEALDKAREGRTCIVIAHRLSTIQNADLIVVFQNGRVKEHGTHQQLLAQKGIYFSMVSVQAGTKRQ

Usually inhibition stands for the change of the read-out against control, counted positive when it falls. Regarding `CCCN(C(=O)CCCCCC(=O)N(CCC)[C@H]1CC2=CC(=O)O[C@@]23C[C@@H]1N1CCCC[C@@H]13)[C@H]1CC2=CC(=O)O[C@@]23C[C@@H]1N1CCCC[C@@H]13`, the inhibition at 10 µM in data set [1] was found to be 78%; in [4], 84%. In addition, the Activity entry in [2] and in data set [3] was “Toxic” throughout.
For the molecule `COc1ccc(CCN(C)CCCC(C#N)(c2ccc(OC)c(OC)c2)C(C)C)cc1OC` (stereo not drawn) [VERAPAMIL], the inhibition at 10 µM in data set [1] was determined as 84%; in data set [4] it was 70%.
Consider `CCCN(C(=O)CCCCCCC(=O)N(CCC)[C@H]1CC2=CC(=O)O[C@]23C[C@H]1N1CCCC[C@H]13)[C@H]1CC2=CC(=O)O[C@]23C[C@H]1N1CCCC[C@H]13`, for which the inhibition at 10 µM in data set [1] was determined as 85%; in data set [4], 78%. Besides, the “inhibition (INH)” value was “Tde” in [5]; “Tde” in data set [6]; “Tde” in [7]; “Active” in data set [13]; “Active” in data set [14]; “Active” in data set [15]. The “inhibition (INH)” value in [16], in data set [17], in [18], in data set [19] and in [20] was “Active” each time. The figures for the “fold change (FC)” value in data set [8], in [9] and in [10] were 126.4, 10.4 and 231, respectively. For the same molecule, the viability at 48 h, 10 µM in [11] and in [12] was > 90% in each case. In addition, the Activity entry with MCF7 was “Non-Toxic”; in the data set with HepG2, “Non-Toxic”; in data set [23] it was “Active”; in [27], “Non-Toxic”; in [28], “Non-Toxic”; in [29], “Non-Toxic”. For the same molecule, the Activity result is reported as “Non-Toxic” in data set [30]; “Toxic” in data set [31]; “Toxic” in data set [32]; “Non-Toxic” in data set [33]; “Non-Toxic” in data set [34]; “Non-Toxic” in data set [35]. The Activity entry in [36], in [37] and in data set [38] was “Non-Toxic” throughout. Also, the result in the data set filed under Homo sapiens [21] and in the data set filed under Homo sapiens [22] was inactive. In [24], the viability at 72 h, 50 µM is 100%. Moreover, the inhibition entry with Homo sapiens [25] was “Active”. For the same molecule, the inhibition result in the data set with Homo sapiens [26] was “inactive”.
Regarding `CCCN(C(=O)CCCCC(=O)N(CCC)[C@H]1CC2=CC(=O)O[C@@]23C[C@@H]1N1CCCC[C@@H]13)[C@H]1CC2=CC(=O)O[C@@]23C[C@@H]1N1CCCC[C@@H]13`, in data set [1], the inhibition at 10 µM was found to be 79%. Besides, the “inhibition (INH)” value in [39] is listed as “Not Active”.
On to `O=C1C=C2C=C[C@@H]3C[C@@]2(O1)[C@H]1CCCCN31` [SECURININE], for which the results for the inhibition at 10 µM in data set [1] and in [4] were 36% and 31%, respectively.
